Measured values from patent publication US6630179B1 (priority 1998, dated 2003).
Like-named read-outs stand apart in the source and are kept apart here.

Columns and labels:
[1] = system: HIV-1 IIIB laboratory strain; experiment: HIV-1 IIIB viral growth, different research group, compared to AZT; assay type: cell-based; conditions: HIV-1 IIIB (first-named isolate)
[2] = system: HIV-1 D isolate; experiment: HIV-1 D isolate viral growth, different research group, compared to AZT; assay type: cell-based; conditions: HIV-1 D isolate (second-named isolate)
[3] = system: Newcastle disease; assay type: in vivo, Ross 308 broiler chickens; conditions: Baytril 10 mg/kg/day for 3 days in first week, one day at 21 days of age; day 28 and 42
[4] = dog, in vivo
Protocol: All animals were euthanased after the 90-day period and a comprehensive post mortem examination, as well as a histopathological evaluation of an extensive list of organs, was performed.

[5] = Study 1511: Subchronic oral toxicity in rats (90 day study); conditions: rat, in vivo
[6] = rat, in vivo

Cc1cn([C@H]2C[C@H](N=[N+]=[N-])[C@@H](CO)O2)c(=O)[nH]c1=O [AZT]
AZT concentration giving the same level of viral growth as oxihumate 25 μg/ml [1]: 0.3 µM
AZT concentration giving the same level of viral growth as oxihumate 25 μg/ml [2]: 12.5 µM

CCN1CCN(c2cc3c(cc2F)c(=O)c(C(=O)O)cn3C2CC2)CC1 [Baytril]
titers against Newcastle disease [3]: two to four fold increase

Potassium oxihumate
overall toxicity assessment [4]: low toxicity
post mortem and histopathological evaluation [4]: did not induce any measurable pathology at the macroscopic and microscopic level
clinical signs of toxicity ([4]; 1200 mg/kg/day): did not induce marked clinical signs of toxicity
clinical pathological parameters ([4]; po): some, but usually small, effects
blood chemistry and body masses ([4]; po, 1200 mg/kg/day): Slight alterations in blood chemistry and slight decrease in body masses
end body mass of male treated animals [5]: statistically significant decrease
circulating lymphocytes ([5]; po): decline
clinical signs ([5]; po): No abnormal clinical signs were observed
pathology and organ masses compared to the control animals ([5]; po): no notable differences
serum globulins ([5]; po): consistent increase
serum inorganic phosphate ([5]; po): decrease
size and haemoglobinization of the red blood cells ([5]; po): drug-related increase
blood chemistry and body masses ([5]; po, 1000 mg/kg/day): Slight alterations in blood chemistry and slight decreases in body masses
acid-base status [6]: very low grade acid-base disturbance
chemical pathology parameters [6]: altered some of the chemical pathology parameters
overall toxicity assessment ([6]; 1000 mg/kg/day): does not appear to have any serious deleterious effect
pathology, body masses and organ masses compared to the control animals ([6]; 1000 mg/kg/day): no differences
